Reference: patent publication US11807693B2 (priority 2014, dated 2023)
Read-outs that look alike come from different tables or passages of the source. Starred links: 1 amine or outer side, 2 acyl side, 3 side chain; linkers in the order of their positions; H or OH if unused. Non-standard residues stand in square brackets, D forms with d. Residues, ends and D or L forms follow the SMILES beside them. *: point of attachment. dBip = N[C@H](Cc1ccc(-c2ccccc2)cc1)C(=O)O; Oic = O=C(O)[C@@H]1C[C@@H]2CCCC[C@@H]2N1; Phe(4-Cl) = N[C@@H](Cc1ccc(Cl)cc1)C(=O)O; dPhe(4-Cl) = N[C@H](Cc1ccc(Cl)cc1)C(=O)O; Phe(4-I) = N[C@@H](Cc1ccc(I)cc1)C(=O)O; γGlu = O=C(O)[C@H](CCC(=O)[*:2])N[*:1]; 2Nal = N[C@@H](Cc1ccc2ccccc2c1)C(=O)O; d(β3hF) = N[C@@H](CC(=O)O)Cc1ccccc1; NMeR = CN[C@@H](CCCNC(=N)N)C(=O)O; Palmitoyl = CCCCCCCCCCCCCCCC(=O)*; Tridecanoyl = CCCCCCCCCCCCC(=O)*; X1 = O=C(CN(C1CCNCC1)[*:1])[*:2]; hArg = N=C(N)NCCCC[C@H](N)C(=O)O; 3Pal = N[C@@H](Cc1cccnc1)C(=O)O; Cha = N[C@@H](CC1CCCCC1)C(=O)O; NMeL = CN[C@@H](CC(C)C)C(=O)O; αMeL = CC(C)C[C@](C)(N)C(=O)O; β3hN = NC(=O)C[C@H](N)CC(=O)O; Tle = CC(C)(C)[C@H](N)C(=O)O; β3hP = O=C(O)C[C@@H]1CCCN1; Pip = O=C(O)[C@@H]1CCCCN1; Nle = CCCC[C@H](N)C(=O)O; Deg = CCC(N)(CC)C(=O)O; AEEA = NCCOCCOCC(=O)O; Aib = CC(C)(N)C(=O)O

Target: T1, rat APJ receptor (Rattus norvegicus, UniProt Q9JHG3)
T1 construct: expressed in transfected cells
T1 sequence (Q9JHG3 1-377): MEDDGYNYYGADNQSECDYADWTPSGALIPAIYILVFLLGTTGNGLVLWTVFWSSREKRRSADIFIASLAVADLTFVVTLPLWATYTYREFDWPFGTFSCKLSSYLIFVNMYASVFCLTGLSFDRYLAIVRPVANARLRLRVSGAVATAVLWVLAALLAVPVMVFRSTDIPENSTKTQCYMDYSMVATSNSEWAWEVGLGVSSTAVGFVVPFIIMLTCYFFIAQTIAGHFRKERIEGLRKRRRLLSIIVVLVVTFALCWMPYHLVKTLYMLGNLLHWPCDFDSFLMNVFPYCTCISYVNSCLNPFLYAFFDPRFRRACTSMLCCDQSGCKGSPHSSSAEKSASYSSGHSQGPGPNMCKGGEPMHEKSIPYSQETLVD
Experiment: [35S] GTPγS assay, rat APJ receptor
Type: biochemical
Protocol: The membranes were incubated with modified peptides in the assay buffer. […] Bound [^35S] GTPγS was separated from free radiolabel by filtration. The filter bound radioactivity was determined by liquid scintillation counting.

[1] = Table 16, read-out: EC50 Rat APJ Receptor
[2] = rat APJ receptor, read-out: EC50 Rat APJ Receptor

Row | Molecule | EC50 [1] [nM] | EC50 [2] [nM] | other results
1 | CCCCCCCCCCCCC(=O)N[C@@H](CCC(=O)NCCOCCOCC(=O)NCCOCCOCC(=O)N[C@@H](CCC(N)=O)C(=O)N[C@@H](CCCNC(=N)N)C(=O)N1CCC[C@H]1C(=O)N[C@@H](CCCCNC(=N)N)C(=O)N[C@@](C)(CC(C)C)C(=O)N[C@@H](CO)C(=O)N[C@@H](Cc1c[nH]cn1)C(=O)N[C@@H](CCCCN)C(=O)NCC(=O)N1CCC[C@H]1C(=O)N[C@@H](CCCC)C(=O)N1CCC[C@H]1C(=O)N[C@@H](Cc1ccc2ccccc2c1)C(=O)O)C(=O)O [compound 404] ({Tridecanoyl-γGlu-AEEA-AEEA}-QRP[hArg][αMeL]SHKGP[Nle]P[2Nal]-OH) | 0.361 |  | 
2 | CSCC[C@H](NC(=O)[C@@H]1CCCN1C(=O)CNC(=O)[C@H](CCCCN)NC(=O)[C@H](Cc1c[nH]cn1)NC(=O)[C@H](CO)NC(=O)[C@H](CC(C)C)NC(=O)[C@H](CCCNC(=N)N)NC(=O)[C@@H]1CCCN1C(=O)[C@H](CCCNC(=N)N)NC(=O)[C@H](CCC(N)=O)NC(=O)[C@H](CCCNC(=N)N)NC(=O)[C@H](CCCNC(=N)N)NC(=O)[C@H](Cc1ccccc1)NC(=O)[C@@H](N)CCCCN)C(=O)N1CCC[C@H]1C(=O)O [compound 12] |  | 5.81 | 
3 | CCCCCCCCCCCCC(=O)N[C@@H](CCC(=O)NCCOCCOCC(=O)NCCOCCOCC(=O)N[C@H](CCC(N)=O)C(=O)N[C@@H](CCCCNC(=N)N)C(=O)N1CCC[C@H]1C(=O)N[C@H](CCCNC(=N)N)C(=O)N[C@@H](CC1CCCCC1)C(=O)N[C@@H](CO)C(=O)NC(CC)(CC)C(=O)N[C@@H](CCCCN)C(=O)NCC(=O)N1[C@H](C(=O)N[C@@H](CCCC)C(=O)N2CCC[C@H]2C(=O)N[C@@H](Cc2ccc(Cl)cc2)C(=O)O)C[C@@H]2CCCC[C@@H]21)C(=O)O [compound 451] ({Tridecanoyl-γGlu-AEEA-AEEA}-[dQ][hArg]P[dR][Cha]S[Deg]KG[Oic][Nle]P[Phe(4-Cl)]-OH) | 31.7 |  | 
4 | CCCCCCCCCCCCC(=O)N[C@@H](CCC(=O)NCCOCCOCC(=O)NCCOCCOCC(=O)N[C@@H](CCC(N)=O)C(=O)N[C@@H](CCCNC(=N)N)C(=O)N1CCC[C@H]1C(=O)N(C)[C@@H](CCCNC(=N)N)C(=O)N[C@@H](CC1CCCCC1)C(=O)N[C@@H](CO)C(=O)N[C@@H](Cc1c[nH]cn1)C(=O)N[C@@H](CCCCN)C(=O)NCC(=O)NC(C)(C)C(=O)N[C@@H](CCCC)C(=O)N1CCC[C@H]1C(=O)N[C@@H](Cc1ccc(Cl)cc1)C(=O)O)C(=O)O [compound 414] ({Tridecanoyl-γGlu-AEEA-AEEA}-QRP[NMeR][Cha]SHKG[Aib][Nle]P[Phe(4-Cl)]-OH) | 3.79 |  | 
5 | CCCCCCCCCCCCC(=O)N[C@@H](CCC(=O)NCCOCCOCC(=O)NCCOCCOCC(=O)N[C@@H](CCCCNC(=N)N)C(=O)N[C@@H](CCCC)C(=O)N[C@@H](CCC(N)=O)C(=O)N[C@@H](CCCCNC(=N)N)C(=O)N1CCC[C@H]1C(=O)N[C@H](CCCNC(=N)N)C(=O)N(C)[C@@H](CC(C)C)C(=O)N[C@@H](CO)C(=O)N[C@@H](C)C(=O)N[C@@H](CCCCN)C(=O)NCC(=O)N1[C@H](C(=O)N[C@@H](Cc2ccc(I)cc2)C(=O)N2CCC[C@H]2C(=O)N[C@H](Cc2ccc(-c3ccccc3)cc2)C(=O)O)C[C@@H]2CCCC[C@@H]21)C(=O)O [compound 327] ({Tridecanoyl-γGlu-AEEA-AEEA}-[hArg][Nle]Q[hArg]P[dR][NMeL]SAKG[Oic][Phe(4-I)]P[dBip]-OH) |  | 14.8 | 
6 | CCCCCCCCCCCCCCCC(=O)N[C@@H](CCC(=O)NCCOCCOCC(=O)NCCOCCOCC(=O)N[C@H](CCC(N)=O)C(=O)N[C@@H](CCCNC(=N)N)C(=O)N1CCC[C@H]1C(=O)N(C)[C@@H](CCCNC(=N)N)C(=O)N[C@@H](CC1CCCCC1)C(=O)N[C@@H](CO)C(=O)N[C@@H](Cc1c[nH]cn1)C(=O)N[C@@H](Cc1cccnc1)C(=O)NCC(=O)N1[C@H](C(=O)N[C@@H](CCCC)C(=O)N2CCC[C@H]2CC(=O)N[C@@H](CC(=O)O)Cc2ccccc2)C[C@@H]2CCCC[C@@H]21)C(=O)O [compound 620] ({Palmitoyl-γGlu-AEEA-AEEA}-[dQ]RP[NMeR][Cha]SH[3Pal]G[Oic][Nle][β3hP][d(β3hF)]-OH) |  | 14.9 | 
7 | CCCCCCCCCCCCC(=O)N[C@@H](CCC(=O)NCCOCCOCC(=O)NCCOCCOCC(=O)N[C@@H](CCC(N)=O)C(=O)N[C@@H](CCCNC(=N)N)C(=O)N1CCC[C@H]1C(=O)N(C)[C@@H](CCCNC(=N)N)C(=O)N[C@H](C(=O)N[C@@H](CO)C(=O)N[C@@H](Cc1c[nH]cn1)C(=O)N[C@@H](CCCCN)C(=O)NCC(=O)N1[C@H](C(=O)N[C@@H](CCCC)C(=O)N2CCC[C@H]2C(=O)N[C@@H](Cc2ccc(Cl)cc2)C(=O)O)C[C@@H]2CCCC[C@@H]21)C(C)(C)C)C(=O)O [compound 439] ({Tridecanoyl-γGlu-AEEA-AEEA}-QRP[NMeR][Tle]SHKG[Oic][Nle]P[Phe(4-Cl)]-OH) | 3.21 |  | 
8 | {H2}[MerPr](10K mPEGacetamide)QRPRLSHKGPMPF{COOH} (N-terminal MerPr 10K mPEG acetamide; source: /note="N-term MerPr(10KmPEGacetamide)") [SEQ ID NO: 110, reference compound] |  |  | EC50 (aqueous stock, absence of DMSO, read-out: rAPJ EC50): 390 nM
9 | CCCCCCCCCCCCC(=O)N[C@@H](CCC(=O)NCCOCCOCC(=O)NCCOCCOCC(=O)N[C@H](CCC(N)=O)C(=O)N[C@@H](CCCCNC(=N)N)C(=O)NC(CC)(CC)C(=O)N[C@H](CCCNC(=N)N)C(=O)N[C@@H](CC1CCCCC1)C(=O)N[C@@H](CO)C(=O)N[C@@H](Cc1c[nH]cn1)C(=O)N[C@@H](CCCCN)C(=O)NCC(=O)N1[C@H](C(=O)N[C@@H](CCCC)C(=O)N2CCC[C@H]2C(=O)N[C@@H](Cc2ccc(Cl)cc2)C(=O)O)C[C@@H]2CCCC[C@@H]21)C(=O)O [compound 455] ({Tridecanoyl-γGlu-AEEA-AEEA}-[dQ][hArg][Deg][dR][Cha]SHKG[Oic][Nle]P[Phe(4-Cl)]-OH) | 10.3 |  | 
10 | CCCCCCCCCCCCC(=O)N[C@@H](CCC(=O)NCCOCCOCC(=O)NCCOCCOCC(=O)N[C@@H](CC(N)=O)CC(=O)N[C@@H](CCCCNC(=N)N)C(=O)N1CCC[C@H]1C(=O)N(C)[C@@H](CCCNC(=N)N)C(=O)N[C@@H](CC1CCCCC1)C(=O)N[C@@H](CO)C(=O)N[C@@H](Cc1c[nH]cn1)C(=O)N[C@@H](CCCCN)C(=O)NCC(=O)N1[C@H](C(=O)N[C@@H](CCCC)C(=O)N2CCC[C@H]2C(=O)N[C@H](Cc2ccc(Cl)cc2)C(=O)O)C[C@@H]2CCCC[C@@H]21)C(=O)O [compound 299] ({Tridecanoyl-γGlu-AEEA-AEEA}-[β3hN][hArg]P[NMeR][Cha]SHKG[Oic][Nle]P[dPhe(4-Cl)]-OH) |  | 14.6 | 
11 | CCCCCCCCCCCCC(=O)N[C@@H](CCC(=O)NCCOCCOCC(=O)NCCOCCOCC(=O)N[C@@H](CCC(N)=O)C(=O)N[C@@H](CCCNC(=N)N)C(=O)N1CCC[C@H]1C(=O)N(C)[C@@H](CCCNC(=N)N)C(=O)N(C)[C@@H](CC(C)C)C(=O)N[C@@H](CO)C(=O)N[C@@H](Cc1c[nH]cn1)C(=O)N[C@@H](CCCCN)C(=O)NCC(=O)N1CCC[C@H]1C(=O)N[C@@H](CCCC)C(=O)N1CCC[C@H]1C(=O)N[C@@H](Cc1ccc(Cl)cc1)C(=O)O)C(=O)O [compound 459] | 0.23 |  | 
12 | CCCC[C@H](NC(=O)[C@@H]1CCCN1C(=O)CNC(=O)[C@H](CCCCN)NC(=O)[C@H](Cc1c[nH]cn1)NC(=O)[C@H](CO)NC(=O)[C@H](CC(C)C)N(C)C(=O)[C@H](CCCNC(=N)N)NC(=O)[C@@H]1CCCN1C(=O)[C@H](CCCNC(=N)N)NC(=O)[C@H](CCC(N)=O)NC(=O)[C@H](CCCNC(=N)N)NC(C)=O)C(=O)N1CCC[C@H]1C(=O)N[C@@H](Cc1ccc(Cl)cc1)C(=O)O [compound 64] (Ac-RQRPR[NMeL]SHKGP[Nle]P[Phe(4-Cl)]-OH) |  | 0.411 | 
13 | CCCCCCCCCCCCCCCC(=O)N[C@@H](CCC(=O)NCCOCCOCC(=O)NCCOCCOCC(=O)N[C@H](CCC(N)=O)C(=O)N[C@@H](CCCNC(=N)N)C(=O)N1CCC[C@H]1C(=O)N(C)[C@@H](CCCNC(=N)N)C(=O)N[C@@H](CC1CCCCC1)C(=O)N[C@@H](CO)C(=O)N[C@@H](Cc1c[nH]cn1)C(=O)N(CC(=O)NCC(=O)N1[C@H](C(=O)N[C@@H](CCCC)C(=O)N2CCC[C@H]2CC(=O)N[C@@H](CC(=O)O)Cc2ccccc2)C[C@@H]2CCCC[C@@H]21)C1CCNCC1)C(=O)O [compound 633] ({Palmitoyl-γGlu-AEEA-AEEA}-[dQ]RP[NMeR][Cha]SH[X1]G[Oic][Nle][β3hP][d(β3hF)]-OH) |  | > 4170 | 
14 | CCCCCCCCCCCCCCCC(=O)N[C@@H](CCC(=O)NCCOCCOCC(=O)NCCOCCOCC(=O)N[C@H](CCC(N)=O)C(=O)N(CC(=O)N1CCC[C@H]1C(=O)N(C)[C@@H](CCCNC(=N)N)C(=O)N[C@@H](CC1CCCCC1)C(=O)N[C@@H](CO)C(=O)N[C@@H](Cc1c[nH]cn1)C(=O)N[C@@H](CCCCN)C(=O)NCC(=O)N1CCCC[C@H]1C(=O)N[C@@H](CCCC)C(=O)NC(C)(C)C(=O)N[C@@H](Cc1ccc(Cl)cc1)C(=O)O)C1CCNCC1)C(=O)O [compound 646] ({Palmitoyl-γGlu-AEEA-AEEA}-[dQ][X1]P[NMeR][Cha]SHKG[Pip][Nle][Aib][Phe(4-Cl)]-OH) |  | 0.994 | 
15 | CCCCCCCCCCCCC(=O)N[C@@H](CCC(=O)NCCOCCOCC(=O)NCCOCCOCC(=O)N[C@@H](CCC(N)=O)C(=O)N[C@@H](CCCCNC(=N)N)C(=O)N1CCC[C@H]1C(=O)N(C)[C@@H](CCCNC(=N)N)C(=O)N[C@@H](CC1CCCCC1)C(=O)N[C@@H](CO)C(=O)N[C@@H](Cc1c[nH]cn1)C(=O)N[C@@H](CCCCN)C(=O)NCC(=O)N1[C@H](C(=O)N[C@@H](CCCC)C(=O)N2CCC[C@H]2C(=O)N[C@@H](Cc2ccc3ccccc3c2)C(=O)O)C[C@@H]2CCCC[C@@H]21)C(=O)O [compound 405] ({Tridecanoyl-γGlu-AEEA-AEEA}-Q[hArg]P[NMeR][Cha]SHKG[Oic][Nle]P[2Nal]-OH) | 13.8 |  | 
